Reference: patent publication US8372819B2, “Methods and compositions for targeting skip” (Salk Institute for Biological Studies, priority 2010, dated 2013)
Blank lines part the entries; values can stand above or below the molecule they belong to. Where a SMILES comes first, the peptide text is derived from it. The star is where a group is joined. Cbz = O=C(OCc1ccccc1)*

Legend:
[1] = test system: SKIP mRNA; experiment: SKIP mRNA levels in 293 cells exposed to FP; format: cell-based; conditions: 10 nM FP
Experimental: (§1) SKIP expression is blocked by Flavopiridol (FP), a CDK inhibitor currently in clinical trials. […] SKIP protein levels decline starting at lOnM FP, though mRNA levels are unaffected at 10 nM FP.

[2] = test system: Ser2-phosphorylated RNAPII; experiment: Immunoblot of Ser2-phosphorylated RNAPII in response to FP; format: cell-based
Experimental: FIG. 8. Immunoblot detection of SKIP and Ser2-phosphorylated RNAPII in response to increasing levels of flavopiridol.
In contrast, levels of Ser2-phosphorylated RNAPII decline with exposure to much higher concentrations of FP (>100 nM).

[3] = test system: SKIP protein; experiment: Immunoblot of endogenous SKIP protein in 293 cells exposed to FP; format: cell-based; conditions: 293 cells exposed for 18 hr
Experimental: as §1

[4] = test system: p21; experiment: Immunoblot of p21 protein in U2OS cells; format: cell-based, human; conditions: U2OS cells transfected with control or SKIP siRNA, proteasome inhibitor treatment
Text: As observed for many essential proteins, depletion of SKIP by siRNA increases endogenous p53 levels. […] To assess whether SKIP plays a role in the normal p53 stress response, endogenous p53 was induced in two human cancer cell lines, U2OS (osteosarcoma) and HCT116 (colon cancer), using the chemotherapeutic DNA damage agents etoposide (U2OS cells) or doxorubicin (HCT116 cells). […] Consequently, PUMA expression was elevated in SKIP-depleted cells, and increased further with DNA damage (FIG. 1). In contrast, both basal and stress-induced p21 mRNA levels decreased in SKIP-depleted HCT116 or U2OS cells, compared with cells treated with a control siRNA, accompanied by a strong block to p21 protein expression, as detected by immunoblot (FIG. 1A, 1B, lanes 1-3 and 4-6). Similar results were obtained using two different SKIP siRNAs.
To determine whether SKIP might also affect p21 protein stability, the rate of p21 protein turnover was measured in SKIP knockdown cells in the absence of stress. Forty-eight hours after transfection with control or SKIP siRNA, U2OS cells were treated with cycloheximide (CHX) to prevent new protein synthesis, and the decay of endogenous p21 protein was measured.

[5] = test system: p21 mRNA; experiment: TGF-β induction of p21 mRNA in MDA-MB-231 cells (qRT-PCR); format: cell-based, human; conditions: TGF-β 5 ng/mL
Experimental: FIG. 5. SKIP is required for Nutlin and TGF-β-induced p21 gene expression. (A, left) qRT-PCR analysis of p21 and PUMA mRNA levels. U2OS cells were transfected with control or SKIP siRNA for 48 h, and incubated in the presence or absence of Nutlin (10 μM) for 18 h. (Right, lanes 1-4) Protein lysates were subjected to immunoblot analysis. (B) qRT-PCR analysis of p21 mRNA levels. MDA-MB-231 cells were transfected with control or SKIP siRNA for 48 h, followed by incubation in the presence or absence of TGF-β (5 ng/mL) for the indicated times. (C, lanes 1-6) Immunoblot analysis of SKIP, Smad2/3, p53, p21, or GAPDH in cells transfected with control or SKIP siRNA for 48 h, followed by treatment with TGF-β (5 ng/mL) for the indicated times. (D, left) qRT-PCR analysis of p21 mRNA levels in HCT 116 p53^−/− cells, H1299 cells, HeLa cells and MDA-MB-231 cells transfected with control or SKIP siRNA for 48 h. (Right, lanes 1-8) Protein lysates were subjected to immunoblot analysis. All of the mRNA expression levels were normalized to GAPDH mRNA, and are represented as fold increase or decrease over untreated cells. Error bars represent the standard deviation obtained from three independent experiments. […]

[6] = biological target: T1, SKIP (Ski-interacting protein), endogenous (human, UniProt Q13573 2-536); experiment: co-immunoprecipitation with SKIP antibody from U2OS whole-cell lysate, Western blot
T1 construct: Endogenous protein of human HCT116 nuclear extract (pull-downs) or U2OS whole-cell lysate (co-IP); also called SNW1; NCoA62
T1 sequence: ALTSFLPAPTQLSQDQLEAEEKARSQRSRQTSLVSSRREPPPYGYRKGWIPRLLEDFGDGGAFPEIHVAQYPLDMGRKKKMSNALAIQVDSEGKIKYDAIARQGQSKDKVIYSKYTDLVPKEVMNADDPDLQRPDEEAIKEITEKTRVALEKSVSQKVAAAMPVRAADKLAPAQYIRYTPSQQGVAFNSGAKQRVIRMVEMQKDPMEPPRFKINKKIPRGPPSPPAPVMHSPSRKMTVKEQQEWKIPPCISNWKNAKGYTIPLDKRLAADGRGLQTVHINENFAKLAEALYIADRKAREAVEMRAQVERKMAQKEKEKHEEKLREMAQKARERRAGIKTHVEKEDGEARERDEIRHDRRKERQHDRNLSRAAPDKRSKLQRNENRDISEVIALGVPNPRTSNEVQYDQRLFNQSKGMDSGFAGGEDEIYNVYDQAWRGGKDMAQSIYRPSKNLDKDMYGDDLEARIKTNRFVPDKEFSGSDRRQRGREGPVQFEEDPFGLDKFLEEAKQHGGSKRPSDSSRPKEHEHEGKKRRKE
Experimental: The immune complexes were subjected to SDS-PAGE followed by immunoblotting with the secondary antibody. For RNA-IP experiments, cells were lysed in ice-cold NET-2 buffer (50 mM Tris-HCL at pH 7.4, 300 mM NaCl, 0.5% [vol/vol] Nonidet P-40, 1× complete protease inhibitors [Roche], 100 U/mL RNase OUT [Invitrogen]). The lysate was incubated with the indicated antibodies or control normal rabbit/mouse IgG on a rotator overnight at 4° C., followed by addition of protein A/G agarose (Invitrogen) for 2 h at 4° C. Beads were then washed four times using the NET-2 buffer. Immunoprecipitated RNA was then extracted using Trizol and reverse-transcribed with random hexamers. The resulting cDNA was analyzed with the indicated primer sets (Table 5).
Figure 4: FIG. 4. SKIP associates with unspliced p21 mRNA and recruits U2AF65. (A) Immunoblot analysis of the interaction between SKIP, U2AF35, and U2AF65 in GST pull-down experiments from HCT116 cell nuclear extract. (B) Total proteins were extracted from U2OS cells for coimmunoprecipitation. Immunoprecipitates were examined by Western blot using antibodies against SKIP, U2AF35, or U2AF65. (C) ChIP analysis of U2AF65 binding on the p21 and PUMA genes. […] ChIP-enriched DNA was quantified by qPCR with the indicated primers in FIG. 2A. […] Immunoprecipitated p21 mRNA was detected using qRT-PCR with the indicated primers.

[7] = biological target: T1, SKIP (Ski-interacting protein), …; experiment: GST pull-down from HCT116 nuclear extract, Western blot
Experimental: SST fusion constructs were expressed in BL21 *Escherichia coli* cells, and crude bacterial lysates were prepared by sonication in GST lysis buffer (25 mM Tris at pH 7.5, 150 mM NaCl, 1 mM EDTA, protease inhibitor). Approximately 10 μg of the appropriate GST fusion proteins was incubated with precleared HCT116 nuclear extract for 2 h at 4° C. The binding reaction was then added with 30 μL of glutathione-Sepharose beads and mixed for another 1 h at 4° C. The beads were washed four times with the above GST lysis buffer, separated on a 10% SDS-PACE, and analyzed by Western blotting.
Figure 4: FIG. 4. SKIP associates with unspliced p21 mRNA and recruits U2AF65. (A) Immunoblot analysis of the interaction between SKIP, U2AF35, and U2AF65 in GST pull-down experiments from HCT116 cell nuclear extract. (B) Total proteins were extracted from U2OS cells for coimmunoprecipitation. Immunoprecipitates were examined by Western blot using antibodies against SKIP, U2AF35, or U2AF65. (C) ChIP analysis of U2AF65 binding on the p21 and PUMA genes. U2OS cells were transfected with control or SKIP siRNA for 48 h, followed by treatment with vehicle or etoposide (20 μM) for 6 h. Protein extracts were immunoprecipitated with antibodies against U2AF65. ChIP-enriched DNA was quantified by qPCR with the indicated primers in FIG. 2A. […] Immunoprecipitated p21 mRNA was detected using qRT-PCR with the indicated primers.

Molecule: CN1CC[C@H](c2c(O)cc(O)c3c(=O)cc(-c4ccccc4Cl)oc23)[C@H](O)C1 [FP, Flavopiridol]
- SKIP mRNA levels [1]: unaffected
- FP concentration at which levels of Ser2-phosphorylated RNAPII decline [2]: > 100 nM
- FP concentration at which SKIP protein levels start to decline [3]: lO

Molecule: CC(C)C[C@@H](C=O)NC(=O)[C@H](CC(C)C)NC(=O)[C@H](CC(C)C)NC(=O)OCc1ccccc1 [MG132] (Cbz-Leu-Leu-Leu-aldehyde)
- p21 protein levels [4]: elevated p21 protein levels

Molecule: TGF-β
- time of peak p21 mRNA levels after induction [5]: 4 h

- binding result [6]: no binding
B1: U2AF35 (other, human, UniProt Q01081 2-240, looked up)
chain: AEYLASIFGTEKDKVNCSFYFKIGACRHGDRCSRLHNKPTFSQTIALLNIYRNPQNSSQSADGLRCAVSDVEMQEHYDEFFEEVFTEMEEKYGEVEEMNVCDNLGDHLVGNVYVKFRREEDAEKAVIDLNNRWFNGQPIHAELSPVTDFREACCRQYEMGECTRGGFCNFMHLKPISRELRRELYGRRRKKHRSRSRSRERRSRSRDRGRGGGGGGGGGGGGRERDRRRSRDRERSGRF
notes: Endogenous protein from human cancer cell lines; also called nuclear U2AF35

- binding result [7]: no binding
B2: GST-U2AF35 (other, UniProt Q01081 1-240, looked up)
chain: MAEYLASIFGTEKDKVNCSFYFKIGACRHGDRCSRLHNKPTFSQTIALLNIYRNPQNSSQSADGLRCAVSDVEMQEHYDEFFEEVFTEMEEKYGEVEEMNVCDNLGDHLVGNVYVKFRREEDAEKAVIDLNNRWFNGQPIHAELSPVTDFREACCRQYEMGECTRGGFCNFMHLKPISRELRRELYGRRRKKHRSRSRSRERRSRSRDRGRGGGGGGGGGGGGRERDRRRSRDRERSGRF
notes: not shown: glutathione-S-transferase (GST) fusion tag
